From US7135501B2, “Clusianon isomers and use thereof” (priority 2001, dated 2006)

Columns and labels:
[1] = system: HCT8 WT bowel cancer cells; assay: Cell cycle analysis (BrdU/PI flow cytometry); format: cell-based, human; details: IC50 concentration, 24 hours
Procedure: Flow cytometric investigations by an adapted method of Tsugita M. et al. are used for the analysis.
Exponentially growing HCT8 WT bowel cancer cells are treated with substance (I) with the determined IC50 concentration for 24 hours, and then the cells are incubated with BrdU. The cells fixed with methanol are subjected to a treatment with a detergent (Triton X-100/HCl) in order to denature the DNA strands. After incubation with the fluorescence-labeled antibody (anti-BrdU mAb, FITC-labeled), the second fluorescent dye (PI, propidium iodide) is added.
The DNA content (propidium iodide fluorescence) and the amount of BrdU taken up (FITC fluorescence) are determined using a Coulter flow cytometer (Coulter EPICS XL). Exemplary results are depicted in FIGS. 3a and 3b.
FIGS. 3a and 3b show BrdU and PI uptakes into the DNA of HCT8 WT cells, untreated (control, […]) and treated with substance (I) (IC50, 24 hours, […]). The depicted results are representative of n=3 independent experiments.

[2] = system: HT29 WT; assay: DNA double-strand breaks, HT29 WT; format: cell-based, human
Procedure: (§1) DNA isolated after treatment of the cells for various times with substance (I) is for this purpose analyzed by gel electrophoresis.
(§2) Determination of the DNA double-strand breaks is performed on ^14C-labeled DNA. For this purpose, [^14C]d-thymidine-labeled cells are treated with various concentrations of substance (I). The DNA is isolated by an adapted method of Chia Chiao et al.
(§3) The DNA fractionated by gel electrophoresis is subsequently stained with ethidium bromide.
(§4) On a transilluminator (302 nm), the intact DNA which has not migrated in the electric field is separated from the fragmented DNA, which has thus migrated into the gel, by extraction. The isolated gel and DNA fragments are liquefied at +80° C. in the presence of hydrochloric acid. After addition of a scintillator it is possible to determine the radioactivity using a liquid scintillation meter (TPI-CARB 2100RT). The measured radioactivity is indicated in […] (cpm).

[3] = target: DNA polymerase (Thermus aquaticus, UniProt P19821); assay: Preliminary experiment with the TSR8 template; format: biochemical; details: maximum concentration 50 μg/ml
Procedure: In order to ensure the effect of substance (I) on telomerase, an effect of substance (I) on DNA polymerase must be ruled out. In a preliminary experiment with TSR8 as internal control, the effect of substance (I) at various concentration levels was ruled out.
Amplification of the TSR8 template depends only on DNA polymerase. Every inhibitor of this enzyme can be detected using the substrate.
The experiment is carried out in triplicates.

[4] = target: T1, topoisomerase I (Homo sapiens, UniProt P11387); assay: Topo I unwinding assay; format: biochemical; details: for concentration required for topoisomerase I inhibition as multiple of the IC50 of tumor cell growth: in vitro
T1 construct: 160 ng of cell nucleus extract with the topoisomerase I present therein; endogenous in cells
T1 sequence (P11387 1-765): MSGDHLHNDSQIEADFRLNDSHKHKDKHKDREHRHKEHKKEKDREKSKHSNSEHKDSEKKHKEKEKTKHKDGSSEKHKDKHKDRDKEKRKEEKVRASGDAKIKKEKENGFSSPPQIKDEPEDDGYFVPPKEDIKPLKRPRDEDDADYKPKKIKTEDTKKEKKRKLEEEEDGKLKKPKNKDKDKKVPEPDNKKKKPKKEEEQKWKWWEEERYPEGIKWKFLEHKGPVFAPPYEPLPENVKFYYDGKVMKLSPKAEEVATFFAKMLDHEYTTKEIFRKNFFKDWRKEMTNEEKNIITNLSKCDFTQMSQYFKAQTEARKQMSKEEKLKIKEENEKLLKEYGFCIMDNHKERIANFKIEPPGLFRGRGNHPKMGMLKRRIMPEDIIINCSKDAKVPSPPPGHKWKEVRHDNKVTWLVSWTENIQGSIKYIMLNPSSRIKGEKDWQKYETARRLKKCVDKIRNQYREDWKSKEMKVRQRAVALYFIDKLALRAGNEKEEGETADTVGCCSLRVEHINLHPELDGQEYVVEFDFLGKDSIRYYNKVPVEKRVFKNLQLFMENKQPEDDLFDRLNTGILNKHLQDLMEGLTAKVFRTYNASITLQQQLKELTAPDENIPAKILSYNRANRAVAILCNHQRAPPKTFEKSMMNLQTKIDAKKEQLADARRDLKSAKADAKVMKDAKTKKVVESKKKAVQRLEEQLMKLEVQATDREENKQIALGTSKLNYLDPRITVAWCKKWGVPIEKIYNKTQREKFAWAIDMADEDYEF
Text: The assay is based on an ATP-independent unwinding of twisted pBR322 plasmid DNA dimers by topoisomerase I. The two different topological forms of the plasmid DNA, the twisted form and unwound, relaxed form, are separated in this investigation by means of an agarose gel. The enzyme topoisomerase I is obtained for this purpose from cell nucleus extracts of the tumor cell lines.
Cell nucleus extracts are obtained by the method of Sullivan with the modifications of Danks et al.

[5] = target: T2, human telomerase (Homo sapiens, UniProt O14746); assay: Telomeric Repeat Amplification Assay (TRAP) ELISA; format: biochemical; details: at 50 μg/ml; telomerase from HCT8 WT colon carcinoma cells
T2 construct: human telomerase obtained from cells of a colon carcinoma (HCT8 WT); endogenous in cells; host or cells: HCT8 WT colon carcinoma cells
Procedure: The effect of substance (I) on human telomerase is determined by carrying out the so-called Telomeric Repeat Amplification Assay (TRAP) ELISA, based on the method of N. W. Kim et al.
This method is based on use of the polymerase chain reaction (PCR). This entails, in a first step, a number of (GGTTAG) motifs being attached by means of the telomerase activity to the 3′ end of a biotin-labeled oligonucleotide (TS=telomerase substrate). In a second step, the products extended in this way are amplified by the PCR technique using TS and RP (R=reverse) primers. In this way, a “ladder” of products in increments of 6 bases (initial size=50 nucleo-tides) is generated. During the amplification, DNP-labeled dCTP is incorporated into the PCR products. Detection and quantification of the synthesized telomerase products using a sandwich ELISA method are a measure of the telomerase enzymatic activity.
The telomerase products carry the biotin-labeled TS primers and bind to the surface of microtiter plates previously coated with streptavidin. An anti-DIG antibody conjugated to POD binds to the […] nucleotides incorporated during the amplification. After addition of the substrate TMB, the telomerase activity is visualized by […] via the onset of the color reaction by the enzyme POD. In this case, the measured absorption is directly proportional to the telomerase activity. […]

[6] = system: HCT8 WT cells; assay: Coincubation cytotoxicity experiment with a specific ERK1/2 inhibitor; format: cell-based, human; details: 24 hours, different dosage ratios
Procedure: HCT8 WT cells were coincubated.

[7] = system: H460 WT cells; assay: DNA double-strand breaks in [14C]d-thymidine-labeled cells, H460 WT; format: cell-based, human; details: up to 10 times the IC50 concentration, 6 hours
Procedure: as §1, §2, §3, §4
The results represent averages and their standard deviation from n=3 independent experiments.

[8] = system: ERK1/2 protein; assay: Western blot analysis of ERK1/2 phosphorylation; format: cell-based, human; details: HCT8 WT, detectable even at IC50 dose
Text: Phosphorylation of certain signal transduction pathways plays an essential role in the regulation of cell growth and gene expression. The protein ERK1/2 (MAP kinase) belongs to the MAP kinase signal transduction pathway.
Treatment of human colon carcinoma cells (HCT8 WT) with substance (I) leads to phosphorylation of this protein, which is detected in a Western blot analysis (FIG. 8).

[9] = system: tumor cell lines, resistant subclones and non-tumor cell lines; assay: SRB assay, comparison across the cell line panel; format: cell-based
Procedure: Six unambiguously characterized tumor cell lines of human origin (native cell lines and those converted into resistant subclones) and two non-tumor cell lines are used for further investigations (table 2).
The sensitivity of the cell lines to the substance (I) is determined in a so-called sulforhodamine B (SRB) assay. This is a robust and highly reproducible standard method which is also established for example at the NCI (National Cancer Institute, USA) (Skehan et al. 1990).
The concentration of substance (I) which inhibits cell growth by 50% (IC50, determined from semilogarithmic dose versus effect plots) are indicated.

T2 sequence (O14746 whole entry): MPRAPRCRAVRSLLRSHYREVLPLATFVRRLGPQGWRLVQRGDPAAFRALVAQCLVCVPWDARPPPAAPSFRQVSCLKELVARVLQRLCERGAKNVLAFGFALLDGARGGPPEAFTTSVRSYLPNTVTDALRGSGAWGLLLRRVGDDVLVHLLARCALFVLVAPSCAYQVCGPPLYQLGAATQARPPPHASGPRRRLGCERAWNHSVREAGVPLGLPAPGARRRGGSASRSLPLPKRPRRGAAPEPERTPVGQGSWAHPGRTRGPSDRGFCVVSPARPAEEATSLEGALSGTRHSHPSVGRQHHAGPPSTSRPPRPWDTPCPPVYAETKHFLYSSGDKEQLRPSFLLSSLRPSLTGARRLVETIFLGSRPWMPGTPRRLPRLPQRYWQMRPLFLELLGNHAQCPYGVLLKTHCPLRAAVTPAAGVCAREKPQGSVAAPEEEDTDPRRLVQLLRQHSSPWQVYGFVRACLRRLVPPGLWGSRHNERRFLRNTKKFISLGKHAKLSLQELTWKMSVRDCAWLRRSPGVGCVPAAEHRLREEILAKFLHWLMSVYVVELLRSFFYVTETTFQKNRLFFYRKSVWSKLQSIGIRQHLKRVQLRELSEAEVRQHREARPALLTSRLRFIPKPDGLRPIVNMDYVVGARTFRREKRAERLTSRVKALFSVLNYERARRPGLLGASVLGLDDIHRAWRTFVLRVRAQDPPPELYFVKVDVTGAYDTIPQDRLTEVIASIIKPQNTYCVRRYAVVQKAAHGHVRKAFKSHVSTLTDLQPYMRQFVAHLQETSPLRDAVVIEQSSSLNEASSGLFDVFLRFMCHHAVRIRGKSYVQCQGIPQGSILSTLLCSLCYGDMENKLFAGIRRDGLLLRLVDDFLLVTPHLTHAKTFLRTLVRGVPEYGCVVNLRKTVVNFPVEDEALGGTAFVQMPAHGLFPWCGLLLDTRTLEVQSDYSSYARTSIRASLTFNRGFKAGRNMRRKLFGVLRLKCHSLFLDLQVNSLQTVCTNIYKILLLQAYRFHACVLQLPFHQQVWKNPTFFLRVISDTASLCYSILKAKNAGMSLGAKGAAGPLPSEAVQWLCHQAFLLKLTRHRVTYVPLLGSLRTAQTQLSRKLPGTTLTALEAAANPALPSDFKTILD
Sequence of DNA polymerase (P19821 whole entry): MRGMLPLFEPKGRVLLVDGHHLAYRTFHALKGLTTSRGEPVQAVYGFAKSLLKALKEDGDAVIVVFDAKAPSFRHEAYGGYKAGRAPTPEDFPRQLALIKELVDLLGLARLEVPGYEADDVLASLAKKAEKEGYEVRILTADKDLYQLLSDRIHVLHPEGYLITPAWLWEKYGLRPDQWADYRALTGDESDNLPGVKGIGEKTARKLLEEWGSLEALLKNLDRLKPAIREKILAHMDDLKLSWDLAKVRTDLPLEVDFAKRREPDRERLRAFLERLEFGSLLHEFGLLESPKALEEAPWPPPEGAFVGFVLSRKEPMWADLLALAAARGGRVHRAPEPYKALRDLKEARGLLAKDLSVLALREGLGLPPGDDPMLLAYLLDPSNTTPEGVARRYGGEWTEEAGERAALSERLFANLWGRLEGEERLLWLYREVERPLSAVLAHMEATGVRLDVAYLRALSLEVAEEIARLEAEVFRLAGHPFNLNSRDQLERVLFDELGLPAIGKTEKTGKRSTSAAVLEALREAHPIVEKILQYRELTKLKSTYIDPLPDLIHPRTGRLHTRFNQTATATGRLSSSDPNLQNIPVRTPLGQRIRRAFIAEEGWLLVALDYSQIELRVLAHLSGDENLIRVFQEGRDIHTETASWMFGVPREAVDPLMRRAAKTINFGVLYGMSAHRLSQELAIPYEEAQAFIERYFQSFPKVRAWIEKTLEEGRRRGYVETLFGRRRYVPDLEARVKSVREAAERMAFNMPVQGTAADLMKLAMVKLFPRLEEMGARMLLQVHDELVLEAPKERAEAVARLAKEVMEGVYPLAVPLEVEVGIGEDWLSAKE

Row | SMILES | effect on cell cycle (BrdU uptake) [1] | induction of DNA double-strand breaks [2] | inhibition of Tag polymerase (TSR8 template amplification) [3] | inhibition at 100 µg/mL ([4]; at 100 μg/ml, 160 ng cell nucleus extract, pBR322 plasmid DNA) | concentration required for topoisomerase I inhibition as multiple of the IC50 of tumor cell growth [4] | inhibition of human telomerase [5] | cytotoxicity on coincubation with a specific ERK1/2 inhibitor (MAP kinase inhibitor) [6] | induction of DNA double-strand breaks [7] | phosphorylation of the ERK1/2 protein [8] | cytotoxicity for the non-tumor cell lines compared with tumor cell lines ([9]; fibroblasts of the 3T3 and MCR 5 lines) | cross-resistance to the indicated cytostatics ([9]; resistant subclones versus native cell lines)
1 | CC(C)=CCC1=C(O)[C@]2(C(=O)c3ccccc3)C(=O)[C@@](CC=C(C)C)(CC(CC=C(C)C)C2(C)C)C1=O (stereo partly drawn) [Substance (I), 1-Benzoyl-8,8-dimethyl-2-hydroxy-3,5,7-tris-(3-methyl-2-butenyl)bicyclo[3.3.1]non-2-ene-4,9-dione] | inhibition of the synthesis phase | substantial amounts of double-strand breaks | does not lead to a significant inhibition | 100% | 20 times | Complete inhibition | pronounced synergism | significant amounts of double-strand breaks | dose-dependent phosphorylation | considerably less | no cross-resistance
2 | CC[C@@]1(O)C(=O)OCc2c1cc1n(c2=O)Cc2cc3c(CN(C)C)c(O)ccc3nc2-1 [topotecan, reference compound] | – | – | – | – | 1000 times | – | – | – | – | – | –
